From US8399014B2, “Physiologically active complex comprising protamine and/or salt therefor and an acidic macromolecular substance, and use thereof” (Maruha Nichiro Foods, Inc., priority 2008, dated 2013)

What was measured:
fat absorption = conditions: oral; protamine dose of 0.5 g; cited from earlier work
[1] = test system: blood tri-glyceride level; assay: Animal test of fat absorption suppressive effect: blood tri-glyceride AUC after corn oil; assay type: in vivo; conditions: Male SD rats
Experimental: (1) Sample for control group: Distilled water was filtrated by a membrane filter (DISMIC-13CP, PTFE, φ0.45 μm, ADVANTEC) and used as a test sample for the control group.
(2) Sample for protamine group: Protamine (2.50 g) was dissolved in distilled water (50 mL) filtrated by a membrane filter and used as a test sample for the protamine group.
(3) Sample for alginate mixture group: As a dispersant, soybean polysaccharide (SM-700, 400 mg) was dissolved in distilled water (50 mL) filtrated by a membrane filter to prepare a 0.8% dispersant solution. Protamine (2.00 g) was dissolved with the 0.8% dispersant solution (20 mL) to prepare a protamine solution. To the protamine solution (12.5 mL), an alginate solution (12.5 mL), which was prepared by dissolving alginate (1.60 g) in the 0.8% dispersant solution (20 mL), was added while stirring to prepare a protamine complex suspension and used as a test sample for an alginate complex (mixture) group.
(4) Sample for gum arabic mixture group: Protamine (2.00 g) was dissolved in distilled water (20 mL) to prepare a protamine solution. […]
Evaluation was performed using Male SD rats (6 weeks old, 7 rats per group). […] Using the plasma samples, a blood tri-glyceride level was measured and compared to the control group with respect to blood-level area under the curve (AUC).

## protamine
Fat absorption
  fat absorption suppressive effect when orally taken by humans: exerts a fat absorption suppressive effect
[1]; oral, corn oil load
  fat absorption suppressive effect compared to the control group: significant fat absorption suppressive effect
[1]; test substance 5 mL/kg orally (corresponding to 0.5 g/kg in terms of protamine), then corn oil 5 mL/kg, blood at 0, 1.5, 3.0, 4.5 hours
  AUC relative to control group (blood tri-glyceride level): 78 ± 7%
